From patent publication US4725581A, “New peptide compounds having a lactone or cycloamide structure” (ADIR et Compagnie, priority 1985, dated 1988)

Assays:
Format in all cases: in vivo
cerebral AMPc = test: Stimulation of the synthesis of cerebral AMPc; conditions: mice OF1/IFFA-Credo, 10 mg/kg intraperitoneally, five minutes after injection
Procedure: The compounds to be tested are administered intraperitoneally at a dose of 10 mg/kg to mice of strain OF1 /IFFA-Credo.
Five minutes after injection, the animals are sacrificed by freezing and the AMPc present in the cerebral structures is measured by radio immunology according to the Amersham method (specific binding protein).

rats = test: Increase in the latency of the onset of sleep induced by Pentobarbital; conditions: 10 mg/kg i.p. before pentobarbital 40 mg/kg i.p.
Procedure: Pentobarbital, injected in rats at a dose of 40 mg/kg i.p., induces the onset of sleep.

mice = test: Potentialisation of the toxicity of Yohimbine; conditions: Yohimbine alone 35 mg/kg i.p.
Procedure: Yohimbine, injected to mice at a dose of 35 mg/kg i.p. causes the death of 10% to 30% treated animals. The compounds of the invention administered at a dose of 10 mg/kg i.p. 15 minutes before the injection of Yohimbine increase the rate of mortality (+80% with compounds of examples 5 and 7).

| Structure (SMILES) | increase of the intracerebral content of AMPc (cerebral AMPc) | effect on the onset of sleep induced by pentobarbital (in words) (rats) | death of treated animals (mice) |
| --- | --- | --- | --- |
| NC(=O)[C@@H]1CCCN1C(=O)[C@H](Cc1c[nH]cn1)NC(=O)[C@@H]1CCC(=O)N1 [TRH, pyroglutamylhistidyl-prolinamide] | 46% | inactive | – |
| COC(=O)[C@@H]1[C@H]2C[C@H]3c4[nH]c5ccccc5c4CCN3C[C@@H]2CC[C@@H]1O [Yohimbine] | – | – | 10% to 30 |
